Assay [1] has as its system Neotropical Brown Stink Bug (Euschistus heros, EUSCHE). The assay is described as follows: whole plant or invertebrate. The assay is classed as in vivo. As for the experimental part:
X=No. of live nymphs on solvent check and Y=No. of live nymphs on treated bean segments. In Table B4 the “Expected % Control” was calculated using the method described in Colby S. R., Weeds, 1967, 15, 20-22. Bioassay 5: Neotropical Brown Stink Bug (Euschistus heros, EUSCHE) (“BSB”).
Stock solutions were prepared with Formula One as well as for each of the active ingredients individually. Test solutions were prepared from the stock solutions. Test solutions were prepared containing Formula One, the individual active ingredients, and mixtures of Formula One with each of the active ingredients. The test solution for Formula One was prepared by adding 500 μL of the stock solution to a 25 mL glass vial, then adding 500 μL of acetone, followed by the addition of 9 mL water with 0.025% Tween®) 20 to create a 0.04% (w/v) solution. The individual active ingredients were prepared by adding 500 μL of stock solution to a 25 mL glass vial, then adding 500 μL of acetone, followed by the addition of 9 mL water with 0.025% Tween®) 20 to create a 0.005% (w/v) solution. The test solutions containing mixtures of Formula One and the individual active ingredients were prepared by adding 500 μL of the active ingredient stock solution to a 25 mL glass vial, followed by 500 μL of the Formula One stock solution, then by the addition of 9 mL water with 0.025% Tween®) 20 to create a test solution containing 0.04% (w/v) Formula One and 0.005% (w/v) of the active ingredient. Each test solution was serially diluted to create desired doses of test solutions (0.01% (w/v), 0.0025% (w/v), 0.000625% (w/v), 0.000156% (w/v), and 0.000039% (w/v)). In test solutions containing mixtures of Formula One and the active ingredients, the active ingredients were diluted as described above, but the Concentration of Formula One was held constant (0.04% (w/v)).
The test solutions that were tested against BSB were similar to those described above for WTPB. Fresh green beans were cut into segments approximately 1.5 inches long. Four bean segments were added to each test solution and soaked for approximately 15 minutes. After soaking, a single bean fragment was removed and placed into a single well of a 32-well rearing tray (Frontier Agricultural Sciences™), on top of a round filter paper disc. A reference treatment (solvent check) was treated with the diluent only. Each treatment was replicated four times and the test treatments were held at approximately 26° C. and ambient relative humidity (RH) prior to grading. Bean segments were allowed to air dry for ˜30 minutes. Three BSB nymphs were added to and contained in each well with a clear perforated adhesive lid. The total number of living BSB nymphs was recorded 3 days after application. Scoring was based off the total number of living nymphs out of all four replicates. Percent control was measured using Abbott's correction formula (W. S. Abbott, J. Econ. Entomol. 18 (1925), pp. 265-267) as follows:
where X=No. of live nymphs on solvent check and Y=No. of live nymphs on treated bean segments. In Table B5 the “Expected % Control” was calculated using the method described in Colby S. R., Weeds, 1967, 15, 20-22. Bioassay 6: Beet Armyworm (Spodoptera exigua, LAPHEG) (BAW), and Diamondback Moth (Plutella xylostella, PLUTMA) (DBM).

The test system of assay [2] is Western Flower Thrips (Frankliniella occidentalis, FRANOC). The assay is described as follows: Bioassay 3: Western Flower Thrips, cotton leaf disc dip, live WFT counted 3 days after treatment. The assay is classed as in vivo. Particulars: for pest or weed control at 7.8e-05 % strength: read-out: Average % Control AI. The gist of the method: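 Cotton leaf discs were dipped in acetone/water solutions with 0.025% Tween 20, at 0.005% to 0.0000195% (w/v) for single actives; mixtures held Formula One constant at 0.04% (w/v). Discs were air dried, infested with 5 nymphs aged 9-10 days, and held at approximately 26° C. Live thrips were counted at 3 days, with Abbott-corrected control against solvent checks.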

Setting [3] is: Euschistus heros, 72 h, AI alone 0.000156 % w/v, read-out: Average % Control AI.
Setting [4] is: Frankliniella occidentalis, foliar, 72 h, AI alone 0.0003125 % w/v.
Where [5] appears, read: Euschistus heros, 72 h, AI alone 0.000625 % w/v.

We go through eleven molecules from US20250338846A1, “COMPOSITIONS HAVING PESTICIDAL UTILITY AND PROCESSES RELATED THERETO” (CORTEVA AGRISCIENCE, LLC, priority 2022, published 2025).

Read-outs that look alike come from different tables or passages of the source.

As for `Cc1c(COC(=O)[C@@H]2[C@H](/C=C(\Cl)C(F)(F)F)C2(C)C)cccc1-c1ccccc1` (racemic) [Bifenthrin], the pest or weed control at 0.000156 % strength in assay [1] (setting [3]) is 30%.
The molecule `CC1(C)[C@H](C(=O)O[C@H](C#N)c2cccc(Oc3ccccc3)c2)[C@@H]1/C=C(\Cl)C(F)(F)F` (racemic) [Lambda Cyhalothrin] displayed a pest or weed control at 0.0003125 % strength in assay [2] (setting [4]) of 7%. In assay [1] (setting [5]), the pest or weed control at 0.000625 % strength was determined as 8%.
Take `COP(=O)(NC(C)=O)SC` (stereo not drawn) [Acephate]: the pest or weed control at 7.8e-05 % strength in assay [2] (Frankliniella occidentalis, foliar, 72 h) was 5%. Also, the pest or weed control at 0.0025 % strength in assay [1] (Euschistus heros, 72 h, read-out: Average % Control AI) is 0%.
`C/C(=N\C#N)N(C)Cc1ccc(Cl)nc1` [Acetamiprid] returned a pest or weed control at 0.0003125 % strength in assay [2] (setting [4]) of 13%.
`CC[S+]([O-])c1c(C#N)nn(-c2c(Cl)cc(C(F)(F)F)cc2Cl)c1N` (stereo not drawn) [Ethiprole] came in with a pest or weed control at 0.005 % strength in assay [2] (Frankliniella occidentalis, foliar, 72 h, AI alone 0.005 % w/v) of 0%. In addition, the pest or weed control at 3.91e-05 % strength in assay [1] (Euschistus heros, 72 h, AI alone 0.0000391 % w/v) stood at 0%.
Turning to `CON=CNC(=O)c1ccc(C2=NOC(c3cc(Cl)cc(Cl)c3)(C(F)(F)F)C2)cc1C` (stereo not drawn) [Fluxametamide], the “Average % Control AI” value in assay [2] (AI alone 0.0003125 % w/v) is 67%; in assay [1] (AI alone 0.000625 % w/v) it was 17%.
Consider `CCN(C(=O)CCS(C)(=O)=O)c1sc(-c2cccnc2)nc1Cl` [Formula F1, N-(4-chloro-2-(pyridin-3-yl)thiazol-5-yl)-N-ethyl-3-(methylsulfonyl)propanamide], for which, in assay [1] (F1 alone 0.04 % w/v), the “Average % Control F1” value is 0%.
As for `O=[N+]([O-])NC1=NCCN1Cc1ccc(Cl)nc1` [Imidacloprid], the pest or weed control at 0.0003125 % strength in assay [2] (setting [4]) was 0%. The same molecule had a pest or weed control at 0.000625 % strength in assay [1] (setting [5]) of 17%.
With `CN1COCN(Cc2cnc(Cl)s2)/C1=N\[N+](=O)[O-]` [Thiamethoxam], the pest or weed control at 7.8e-05 % strength in assay [2] (Frankliniella occidentalis, foliar, 72 h, AI alone 0.000078 % w/v) came out at 7%. Besides, the pest or weed control at 0.000156 % strength in assay [1] (setting [3]) was 17%.
Consider Abamectin, for which, in assay [1] (AI alone 0.000625 % w/v), the “Average % Control AI” value turned out to be 17%.
Take Emamectin Benzoate: the “Average % Control AI” value in assay [2] (AI alone 0.005 % w/v) turned out to be 38%; in assay [1] (AI alone 0.000156 % w/v) it was 24%.
